Source: patent US20220048908A1, “COMPOSITIONS AND METHODS FOR MODULATING HAIR GROWTH” (The Regents of the University of California, priority 2019, published 2022)
Entries after “also recorded” stand apart in the source; their conditions may differ.

Columns and labels:
hair cycle = assay: Topical treatment of mice in telogen with UK-5099: hair cycle / HFSC activation; format: in vivo
Method: (§1) FIG. 7A: Animals treated topically with UK-5099 (20 μM) show pigmentation and hair growth, indicative of entry into anagen, after 8 days of treatment. Full anagen, indicated by full coat of hair, is achieved after 14 days of treatment. […] Images shown are representative of at least 14 mice from 7 independent experiments. Scale bars indicate 100 micrometers. FIG. 7B: Graph showing time to observed phenotype in vehicle versus UK-5099 treated mice. n=6 mice per condition. Shown as mean±SEM. […] Ldh activity is indicated by purple stain; pink is nuclear fast red counterstain. Scale bars indicate 50 micrometers. FIG. 7D: Metabolomic analysis of Lactate on HFSCs isolated from UK-5099 treated skin for 48 hours; Each bar represents the average signal for each condition where n=9 mice pooled from 3 independent experiments. Shown as mean±SEM. Paired t-test was performed, p<0.05.
(§2) Quantification of the hair cycle across at least 6 pairs of animals (vehicle vs UK-5099) indicated a strong acceleration of the hair cycle, in as few as 6-9 days (FIG. 7B).

lactate in sorted HFSCs = assay: Metabolomic analysis of lactate on HFSCs isolated from treated skin; format: in vivo, mice; conditions: topical application, skin treated for 48 hours
Method: as §1, §2

[1] = tested on: Ldh activity in HFSCs and the interfollicular epidermis; assay: Ldh enzyme activity assay in the epidermis of topically treated animals; format: in vivo, mice; conditions: topical, 48 hours during telogen
Method: as §1
To determine whether Ldha expression patterns correlate with activity of the Ldh enzyme, a colorimetric-based enzymatic assay was used to assess Ldh activity capacity in situ. Typically performed on protein lysates or aliquots with a plate reader, the Ldh activity assay was adapted to work in situ on frozen tissue sections. […]
as §2

[2] = topical treatment of animals in telogen (day 50)

N#C/C(=C\c1cn(-c2ccccc2)c2ccccc12)C(=O)O [UK-5099, (E)-2-Cyano-3-(1-phenyl-1H-indol-3-yl)acrylic acid]
effect on the hair cycle (hair cycle; [2]): robust acceleration of the hair cycle
effect on the interfollicular epidermis (proliferation) (hair cycle; [2]): minor hyperproliferation of the interfollicular epidermis
time to full anagen, indicated by full coat of hair (hair cycle; topical, 20 μM): 14 days
skin pathology (entry into anagen) (hair cycle; topical, 20 μM, at 8 weeks, vehicle remained in telogen): enter an accelerated anagen
time to pigmentation and hair growth, indicative of entry into anagen (hair cycle; topical, 20 μM, vehicle shows none even after 12 days): 8 days
time in which acceleration of the hair cycle is seen (hair cycle; topical, at least 6 pairs of animals, vehicle vs UK-5099): 6 to 9 days
total levels of lactate in sorted HFSCs (lactate in sorted HFSCs): increases total levels of lactate
Ldh activity in HFSCs and interfollicular epidermis [1]: Ldh enzyme activity also seen in interfollicular epidermis; also recorded: increased Ldh activity
